Test results reported in PubChem BioAssay AID489040 (Sanford-Burnham Center for Chemical Genomics, 2010).
pEC50: −log10 of the molar value. The source made the active and inactive calls.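 Rule for the calls: active = mean half-maximal activating concentration from the dose-response fit at or below a set limit; inactive = the rest.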

molecular target: CHO-XBP1 luciferase reporter, IRE1-XBP1 UPR activation; assay: XBP1 luciferase reporter activation – CHO-XBP1 cells, luminescence, counter-screen for apoptotic UPR arm activators, dose response (AID 489040);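 note: reporter read after six hours of compound exposure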

SMILES	EC50	pEC50
CCOC(=O)/C(=C\c1ccc(Cl)cc1)c1nc2sc(C)c(C)c2c(=O)[nH]1	> 80 µM (inactive)	
COC(=O)c1cc(=O)n(Cc2ccco2)c(=Nc2ccc(F)c(Cl)c2)s1	> 80 µM (inactive)	
O=Cc1ccc(O)c2ncccc12	> 80 µM (inactive)	
CCN(CC)c1ccc(/C=C2\C(=O)N(c3nnc(C)c(=O)[nH]3)N=C2C)cc1	> 80 µM (inactive)	
COc1ccc(C(=O)/C=C2/C(=O)Nc3ccccc32)c(OC)c1	> 80 µM (inactive)	
O=C(/C(=N/N=C/c1ccc(O)c(O)c1)c1ccccc1)c1ccccc1	> 80 µM (inactive)	
COCc1ccc(O)c2ncccc12	inactive	
Cc1ccc(C(=O)NC(C#N)=C(Cl)Cl)cc1	> 80 µM (inactive)	
CCOc1cc(/C=C2/C(=N)N3C=CSC3=NC2=O)ccc1OCCCOc1ccccc1C		4.70
CCOc1cccc(C(=O)Nc2cccc(-c3nnc(-c4ccc(C)cc4)o3)c2)c1	> 80 µM (inactive)	
COc1ccc(N=c2oc3c(OC)cccc3cc2C(=O)NCc2ccco2)cc1OC	> 80 µM (inactive)	
O=C(N/N=C\c1cc2c(cc1Cl)OCO2)c1ccc(Br)s1	> 80 µM (inactive)	
O=C(Nc1ccc(C(F)(F)F)cc1)c1cc(-c2cccnc2)nc2ccc(Br)cc12		5.20
CCc1cccc2c(C(=O)CCl)c[nH]c12	> 80 µM (inactive)	
Cn1nc([N+](=O)[O-])c(C(C#N)c2ccccn2)c(Cl)c1=O (stereo not given)	> 80 µM (inactive)	
O=c1c2c3c(sc2ncn1/N=C/c1ccc([N+](=O)[O-])o1)CCCC3	> 80 µM (inactive)	
S=C1SCN(Cc2ccco2)CN1Cc1ccco1	> 80 µM (inactive)	
COC(=O)c1cc(=O)n(CCc2ccc(OC)c(OC)c2)c(=Nc2ccc(F)c(Cl)c2)s1	> 80 µM (inactive)	
CCOC(=O)N1CCN(Cc2ccc(O)c3ncccc23)CC1	> 80 µM (inactive)	
N#Cc1ccc(N/N=C/c2cn(-c3ccccc3)nc2-c2ccccc2)c([N+](=O)[O-])c1	> 80 µM (inactive)	
O=C(Nc1nc(-c2ccc(F)c(F)c2)cs1)Nc1ccc(F)cc1F	> 80 µM (inactive)	
COc1ccc(CCn2c(C)cc(C(=O)CCl)c2C)cc1OC	> 80 µM (inactive)	
O=C(NC(=S)Nc1ccc(NC(=O)c2cccs2)cc1)c1cc2ccccc2o1	> 80 µM (inactive)	
Cc1ccc(Cc2cnc(NC(=O)/C(C#N)=C/c3ccc(-c4ccc([N+](=O)[O-])cc4)o3)s2)cc1	inactive	

SMILES	EC50	pEC50
O=C(Nc1ccc(NC(=O)c2sc3ccccc3c2Cl)cc1Cl)c1ccco1	inactive	
COc1cccc(-n2c(SCC(=O)N3CCc4ccccc43)nnc2-c2c[nH]c3ccccc23)c1	inactive	
COC(=O)c1ccc(COc2ccccc2/C=C(\C#N)C(=O)Nc2c(C)cccc2C)cc1	inactive	
Cc1ccc(-c2csc3ncnc(Sc4nnc(CN5CCCCCC5=O)o4)c23)cc1	> 80 µM (inactive)	
O=C(NCc1ccccc1Br)c1cccc2c1C(=O)c1ccc(-c3ccc(OC(F)(F)F)cc3)cc1S2(=O)=O		4.77
O=C(Oc1c(CN2CCOCC2)cc(Cl)c2cccnc12)c1ccc(F)cc1	> 80 µM (inactive)	
O=C(Oc1ccccc1/C=C\C(=O)c1cc2ccccc2o1)c1ccccc1	> 80 µM (inactive)	
O=C1C(CSCc2ccccc2)NC(=S)N1c1ccccc1 (stereo not given)	> 80 µM (inactive)	
CS(=O)(=O)Oc1ccc2c(c1)O/C(=C\C=C\c1ccccc1)C2=O	> 80 µM (inactive)	
Nc1cccc(-c2nc3cc(S(=O)(=O)c4ccc5oc(-c6cccc(N)c6)nc5c4)ccc3o2)c1	> 80 µM (inactive)	
COc1ccccc1N1CCN(Cc2ccc(O)c3ncccc23)CC1	> 80 µM (inactive)	
CC1(C)CC(=O)C(=Cc2cn(-c3ccccc3)nc2-c2ccccc2)C(=O)C1	> 80 µM (inactive)	
CCCCCCCC(=O)Nc1ccc(C(=O)N/N=C/c2cccc([N+](=O)[O-])c2)cc1		4.76
CCCCOC(=O)/C=C\C(=O)NC(N)=O	> 80 µM (inactive)	
Oc1[nH]c2ccc(Br)cc2c1N=NC(=S)N1CCOCC1	> 80 µM (inactive)	
CCOc1ccccc1N=Cc1c(O)c2ccccc2oc1=O		4.97
Cc1cccnc1Nc1nc(-c2ccccn2)cs1	> 80 µM (inactive)	
COC(=O)[C@@H]1[C@@H](C#N)C2(c3ccccc3-c3ccccc32)N(c2ccc(Cl)cc2)N1C#N	> 80 µM (inactive)	
c1ccc(CSC2=NNC(c3ccccn3)S2)cc1 (stereo not given)	> 80 µM (inactive)	
CCOC(=O)CSc1cccc2cccnc12	> 80 µM (inactive)	
CCOC(=O)C(CC)(CC)C(=O)/C=C/c1cccc(Br)c1	> 80 µM (inactive)	
Cc1ccc(CS(=O)(=O)c2ncc(Cl)c(C(=O)Nc3ccc(OC(F)F)cc3)n2)cc1	> 80 µM (inactive)	
CCOC(=O)c1cnc(-n2nc(C)cc2C)nc1NC1CCCCC1	> 80 µM (inactive)	
CCOc1cc(NC(=O)CCl)c(OCC)cc1NC(=O)CCl	> 80 µM (inactive)	

SMILES	EC50	pEC50
Clc1ccc(-c2ccc(/C=N/Nc3nncc(-c4ccccc4)n3)o2)cc1	inactive	
COc1cc(SC#N)ccc1N=Cc1c(C)[nH]n(-c2ccc(C)c(C)c2)c1=O	> 80 µM (inactive)	
C/C(=N\NC(=O)c1ccccc1OCc1ccc(F)cc1)c1ccccn1	> 80 µM (inactive)	
COc1ccc(O)c(/C=N/Nc2nc(Nc3ccccc3)nc(-n3nc(C)cc3C)n2)c1	> 80 µM (inactive)	
O=C(/C=C1\NC2(CCCC2)Cc2ccccc21)C(=O)N/N=C/c1ccc(O)c(O)c1		4.87
FC(F)(F)c1nnc2c(Sc3ccc(Cl)cc3)nc3ccccc3n12	> 80 µM (inactive)	
COc1ccccc1-c1nnc(Nc2nc3c(OC)cccc3s2)o1	> 80 µM (inactive)	
CSc1nnc(NC(=O)c2nc(S(=O)(=O)Cc3ccc(C)cc3)ncc2Cl)s1	> 80 µM (inactive)	
CC(C)[C@H](NC(=O)OC(C)(C)C)c1nnc(S(=O)(=O)Cc2c(F)cccc2Cl)o1	> 80 µM (inactive)	
C/C(=N\NC(=O)c1cc(Br)ccc1O)c1ccccn1	> 80 µM (inactive)	
Cn1c(SCC(=O)NCC2CCCO2)ncc(C(=O)Nc2ccc(Cl)cc2)c1=O (stereo not given)	> 80 µM (inactive)	
O=[N+]([O-])c1ccc(C=Nc2ccc(Cl)cc2Cl)s1	> 80 µM (inactive)	
COc1cc2nc(=S)n3[nH]c(CCn4nc(C)cc4C)nc3c2cc1OC	> 80 µM (inactive)	
Oc1ccc(/C=N/Nc2cc(N3CCCC3)nc(N3CCCC3)n2)cc1O	inactive	
O=C(/C(=C/c1cccc(Cl)c1)c1nc2ccccc2[nH]1)c1ccccc1	> 80 µM (inactive)	
CC1(C)CC(=O)C(=Cc2cn(-c3ccccc3)nc2-c2ccc(Cl)cc2)C(=O)C1	> 80 µM (inactive)	
O=C(NC1CCCC1)C(c1ccc(F)cc1)N(Cc1ccc(F)cc1)C(=O)CCl (stereo not given)	> 80 µM (inactive)	
COc1cccc2sc(Nc3nnc(-c4cccs4)o3)nc12	> 80 µM (inactive)	
O=C(N/N=C/c1cccc([N+](=O)[O-])c1)c1cc2c(ccc3ccccc32)o1	> 80 µM (inactive)	
O=C(Nc1ccc(Cc2ccncc2)cc1)c1ccc([N+](=O)[O-])o1	> 80 µM (inactive)	
Cc1cccc2sc(NC(=O)c3cc(S(=O)(=O)N(C)C)ccc3N3CCCC3)nc12		5.28
COc1cc(/C=C/[N+](=O)[O-])ccc1O	> 80 µM (inactive)	
